For test [1], the system named is MK-801-induced PPI deficit. Description: Prepulse inhibition test in MK-801-treated mice. It counts as in vivo, C57BL/6J male mice. Conditions: 1 mg/kg oral, 0.3 mg/kg MK-801 IP; PPI 6 and PPI 10; p < 0.05, n = 14. As to the method: (§1) For behavioral studies, α12G was dissolved in 35% PEG-400 and administrated by oral gavage 20 min prior to the MK-801 insult. MK-801 (Sigma-Aldrich, St. Louis, MO, USA) was administrated via intraperitoneal (IP) injection 20 min prior to the behavioral tests, with the dosage of 0.2 mg/kg for the open field test and novel object recognition test and 0.3 mg/kg for the prepulse inhibition test.
C57BL/6J male mice were randomly assigned into five groups, 6–21 mice per group, (1) saline control, (2) MK-801, (3) 1 mg/kg α12G + MK-801, (4) 3.5 mg/kg α12G + MK-801, and (5) 10 mg/kg α12G + MK-801. Prepulse inhibition (PPI), a measurement of sensorimotor gating, served as a biomarker of schizophrenia. Using the SR-LAB startle apparatus (San Diego Instruments, San Diego, CA, USA), the PPI ratio with startle response was elicited by various acoustic stimuli. Each C57BL/6J male mouse was placed in an acrylic cylinder in a dark and sound-insulated chamber. With a constant 65 dB background noise, the session comprised a 5 min acclimation period followed by 4 blocks including a total of 64 trials. […] The ratio of PPI was calculated from the startle response by the following formula: PPI % = 100 × [(PA score) − (pp-P score)]/(PA score), while the PA score was averaged from PA values in the two middle blocks.

The target of test [2] is T1, hSR (Homo sapiens, UniProt Q9GZT4).
T1 construct: 6xHis (C); made in house; host or cells: E. coli BL21 (pET42b-hSR)
T1 sequence (Q9GZT4 1-340): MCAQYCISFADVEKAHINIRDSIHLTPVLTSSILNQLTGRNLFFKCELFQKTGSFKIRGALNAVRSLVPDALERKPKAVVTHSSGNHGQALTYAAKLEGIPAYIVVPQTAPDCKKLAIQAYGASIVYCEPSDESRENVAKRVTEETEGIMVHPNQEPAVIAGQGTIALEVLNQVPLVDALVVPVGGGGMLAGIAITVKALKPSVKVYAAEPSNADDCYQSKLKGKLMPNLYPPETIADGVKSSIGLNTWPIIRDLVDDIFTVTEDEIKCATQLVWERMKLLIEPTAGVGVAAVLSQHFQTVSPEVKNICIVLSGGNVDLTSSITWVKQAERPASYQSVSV
Description: Intrinsic tryptophan fluorescence (ITF) binding assay. To be noted: 0.25 mM ATP, Hill slope model. As for the experimental part:
First, 30 µL of 2 µM hSR protein was added into 270 µL buffer (100 mM Tris-HCl, pH 8.0, 1 mM MgCl2, 0.25 mM ATP, 50 µM PLP, 10% DMSO) with ligand and subsequently reacted for 20 min at room temperature. All samples were measured in triplicates and excited at 282 nm. The emission spectra were measured with a 5 nm bandwidth resolution at 300 to 400 nm wavelengths by a Varioskan™ LUX multimode microplate reader (Thermo Fisher Scientific, Lagoas Park, Porto Salvo, Portugal). The fluorescence intensity collected at 304 nm was analyzed using GraphPad Prism 8 software (Dotmatics, Boston, MA, USA). The dissociation constant (Kd) was derived by specific binding with the Hill slope model: Y = Bmax × X^n/(Kd^n + X^n), with X being the ligand concentration, maximum number of binding sites (Bmax) being the maximum specific binding, and n being Hill slope.
The Hill coefficient (n) of 1.28 is close to n = 1, indicating a noncooperative binding.

Test [3] has as its target D-amino acid oxidase (DAAO) (Homo sapiens, UniProt P14920). Description: DAAO enzymatic assay. It counts as biochemical. To be noted: 5 mM D-serine, pH 8.5. As to the method: A reaction mixture for the DAAO assay, with a final volume of 100 µL was made with 1 µL 2 times serially diluted α12G (4 µM to 7.8 nM), 45 µM FAD, 10 units of HRP, 60 ng DAAO, 10 mM Amplex Red^TM, 5 mM D-serine, and 100 mM Tris HCl (pH = 8.5). All reactions were performed in duplicates. The fluorescence was detected by a fluorometric meter (TECAN Infinite 200). The racemization percentage was calculated as follows: activity % = (Fsample, 20 min − Fsample, 0 min)/(Fblank, 20 min − Fblank, 0 min) × 100%.

The test system of test [4] is MK-801-induced memory impairment. Description: Novel object recognition test in MK-801-treated mice. It counts as in vivo, C57BL/6J male mice. Conditions: 10 mg/kg oral, 0.2 mg/kg MK-801 IP; p < 0.01, n = 8. As for the experimental part:
as §1
C57BL/6J male mice were randomly assigned into five groups, 6–8 mice per group, (1) saline control, (2) MK-801, (3) 1 mg/kg α12G + MK-801, (4) 3 mg/kg α12G + MK-801, and (5) 10 mg/kg α12G + MK-801. A novel object recognition test (NOR) was conducted in a square chamber (40 × 40 × 40 cm) under 15–20 lux light intensity, and a digital camera was used to record the behaviors. The test consisted of two sessions. In session I, mice were allowed to explore the chamber with two identical objects (yellow square Lego bricks) for 5 min and were then moved to the home cage for 5 min. In session II, mice were allowed to explore the chamber with one object kept the same (familiar object) and the other replaced with a novel object (blue circular bottle cap) for 10 min. The interaction of mice with both the objects (familiar vs. novel) was recorded, and the discrimination index was calculated with the following formula:Discrimination index = Time (novel object) − Time (familiar object)/Total exploring time

The subject of test [5] is MK-801-induced hyperactivity. Description: Open field test in MK-801-treated mice. Conditions: oral gavage 20 min before 0.2 mg/kg MK-801 IP; p < 0.001, n = 8. It counts as in vivo, C57BL/6J male mice. As to the method: as §1
C57BL/6J male mice were randomly assigned into six groups, 7–12 mice per group, (1) saline control, (2) MK-801, (3) 1 mg/kg α12G + MK-801, (4) 3 mg/kg α12G + MK-801, (5) 10 mg/kg α12G + MK-801, and (6) 30 mg/kg α12G + MK-801. The mice were placed in a Plexiglas cage (37.5 × 21.5 × 18 cm), and their spontaneous locomotor activities were measured for 60 min using a Photobeam Activity System (PAS) open field (San Diego Instruments, San Diego, CA, USA). The total photo beam breaks of each mouse were measured as an index of locomotor activity.

What is called Kd is the equilibrium constant for the complex coming apart. Usually IC50 stands for the point on the concentration scale where inhibition reaches its midpoint. Low readings indicate inhibition by little substance, high ones a need for much substance.

Sequence of D-amino acid oxidase (DAAO) (P14920 whole entry, species assumed): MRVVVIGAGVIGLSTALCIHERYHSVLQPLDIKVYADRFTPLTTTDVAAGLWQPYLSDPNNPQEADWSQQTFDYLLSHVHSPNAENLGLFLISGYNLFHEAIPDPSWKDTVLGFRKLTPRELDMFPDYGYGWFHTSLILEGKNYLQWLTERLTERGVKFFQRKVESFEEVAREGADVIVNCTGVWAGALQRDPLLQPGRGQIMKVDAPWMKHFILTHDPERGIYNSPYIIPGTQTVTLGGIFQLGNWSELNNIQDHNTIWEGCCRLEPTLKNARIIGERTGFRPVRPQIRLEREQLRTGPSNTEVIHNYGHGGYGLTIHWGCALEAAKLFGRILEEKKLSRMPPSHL

As for `O=C(Oc1cc(C(=O)Oc2cc(C(=O)O[C@H]3OC[C@@H](OC(=O)c4cc(O)c(O)c(OC(=O)c5cc(O)c(O)c(OC(=O)c6cc(O)c(O)c(O)c6)c5)c4)[C@H](OC(=O)c4cc(O)c(O)c(OC(=O)c5cc(O)c(O)c(OC(=O)c6cc(O)c(O)c(O)c6)c5)c4)[C@H]3OC(=O)c3cc(O)c(O)c(OC(=O)c4cc(O)c(O)c(OC(=O)c5cc(O)c(O)c(O)c5)c4)c3)cc(O)c2O)cc(O)c1O)c1cc(O)c(O)c(O)c1` [α12G, (2R,3R,4S,5R)-tetrahydro-2H-pyran-2,3,4,5-tetrayl tetrakis(3-((3,4-dihydroxy-5-((3,4,5-trihydroxybenzoyl)oxy)benzoyl)ox)-4,5-dihydroxybenzoate)], in test [1], the “Effect on PPI deficits” value is recorded as “significantly alleviate PPI deficits”. Further, in test [2], the Bmax stood at 96.86 fmol/mg. Besides, in test [2] (read-out: binding affinity (Kd)), the Kd worked out at 240 nM. In test [3], the IC50 came out at 160 nM. For the same compound, in test [4], the “Effect on MK-801-induced memory impairment (novel object recognition)” value was “attenuated this MK-801-induced memory impairment”. Moreover, the “Effect on MK-801-induced hyperactivity (locomotor activity)” value in test [5] is on record as “alleviated the MK-801-induced hyperactivity”.

These data come from paper PMC11048566, “The Development of a Regulator of Human Serine Racemase for N-Methyl-D-aspartate Function” (Biomedicines, 2024).
